Source: US5273991A, “Imidazole-containing compositions and methods of use thereof analogs of distamycin” (Research Corporation Technologies, Inc., priority 1992, dated 1993)

How the values were obtained:
Assay in all cases: NCI cytotoxicity screen (SRB)
Format in all cases: cell-based, human
A549/ATCC = conditions: 48 h; Non-Small Cell Lung Cancer A549/ATCC
Method: (§1) Compounds 6, 7, 9 and 10 were tested for cytotoxic properties by the National Cancer Institute, Bethesda, Md. The anticancer drug screen utilized a panel of 60 human tumor cell lines organized into subpanels representing leukemia, melanoma, and cancers of the lung, colon, kidney, ovary and central nervous system and is described by Monks et al. (1991) Journal of the National Cancer Institute 83, 757, which is incorporated herein by reference.
(§2) Cell lines were inoculated onto microtiter plates and preincubated for 24-28 hours. 100 μL aliquots of each compound were added to the appropriate microtiter plate wells in each of five 10-fold dilutions starting from a maximum concentration of 10^-4 M in water or DMSO. Cultures were then incubated for an additional 48 hours. Cells were then fixed in situ, followed by staining with sulforhodamine B (SRB), which binds to basic amino acids of cellular macromolecules. The solubilized stain was measured spectrophotometrically to determine relative cell growth or viability in treated and untreated cells. The monoimidazole analogs of Compounds 6, 7, 9 and 10 and the formamido analog corresponding to Compounds 7 and 10 are devoid of activity against the panel of cancer cell lines in Table III.

COLO-205 = conditions: 48 h; Colon Cancer COLO-205
Method: as §1, §2

HCC-2998 = conditions: 48 h; Colon Cancer HCC-2998
Method: as §1, §2

HCT-116 = conditions: 48 h; Colon Cancer HCT-116
Method: as §1, §2

HCT-15 = conditions: 48 h; Colon Cancer HCT-15
Method: as §1, §2

HOP-62 = conditions: 48 h; Non-Small Cell Lung Cancer HOP-62
Method: as §1, §2

K-562 = conditions: 48 h; Leukemia K-562
Method: as §1, §2

KM12 = conditions: 48 h; Colon Cancer KM12
Method: as §1, §2

KM20L2 = conditions: 48 h; Colon Cancer KM20L2
Method: as §1, §2

MALME-3M = conditions: 48 h; Melanoma MALME-3M
Method: as §1, §2

Molt-4 = conditions: 48 h; Leukemia Molt-4
Method: as §1, §2

NCI-H226 = conditions: 48 h; Non-Small Cell Lung Cancer NCI-H226
Method: as §1, §2

NCI-H23 = conditions: 48 h; Non-Small Cell Lung Cancer NCI-H23
Method: as §1, §2

NCI-H322M = conditions: 48 h; Non-Small Cell Lung Cancer NCI-H322M
Method: as §1, §2

NCI-H460 = conditions: 48 h; Non-Small Cell Lung Cancer NCI-H460
Method: as §1, §2

NCI-H522 = conditions: 48 h; Non-Small Cell Lung Cancer NCI-H522
Method: as §1, §2

SF-295 = conditions: 48 h; CNS Cancer SF-295
Method: as §1, §2

SF-539 = conditions: 48 h; CNS Cancer SF-539
Method: as §1, §2

SW-620 = conditions: 48 h; Colon Cancer SW-620
Method: as §1, §2

U251 = conditions: 48 h; CNS Cancer U251
Method: as §1, §2

DLD-1 = conditions: 48 h; Colon Cancer DLD-1
Method: as §1, §2

DMS-114 = conditions: 48 h; Small Cell Lung Cancer DMS-114
Method: as §1, §2

EKVX = conditions: 48 h; Non-Small Cell Lung Cancer EKVX
Method: as §1, §2

HT29 = conditions: 48 h; Colon Cancer HT29
Method: as §1, §2

SF-268 = conditions: 48 h; CNS Cancer SF-268
Method: as §1, §2

XF498 = conditions: 48 h; CNS Cancer XF498
Method: as §1, §2

SMILES | IC50 (A549/ATCC) | IC50 (COLO-205) | IC50 (HCC-2998) | IC50 (HCT-116) | IC50 (HCT-15) | IC50 (HOP-62) | IC50 (K-562) | IC50 (KM12) | IC50 (KM20L2) | IC50 (MALME-3M) | IC50 (Molt-4) | IC50 (NCI-H226) | IC50 (NCI-H23) | IC50 (NCI-H322M) | IC50 (NCI-H460) | IC50 (NCI-H522) | IC50 (SF-295) | IC50 (SF-539) | IC50 (SW-620) | IC50 (U251) | other results
CN(C)CCNC(=O)c1nc(NC(=O)c2nc(NC(=O)CCCc3ccc(N(CCCl)CCCl)cc3)cn2C)cn1C [Compound 9, N-(N',N'-dimethylaminoethyl)-1-methyl-4-{4-[4,4-bis(2-chloroethyl)aminophenyl-1-butanamido]-1-methylimidazole-2-carboxamido}imidazole-2-carboxamide] | 78.5 µM | 81.6 µM | 55.1 µM | 50.2 µM | 61.3 µM | 75.5 µM | 54.2 µM | 60.9 µM | 53.4 µM | 56.3 µM | 71.3 µM | 47.9 µM | 67.3 µM | 77.6 µM | 43.5 µM | 86.6 µM | 51.9 µM | 47.9 µM | 77.3 µM | 46.2 µM | 
CN(C)CCNC(=O)c1nc(NC(=O)c2nc(NC(=O)c3nc(NC(=O)CCCc4ccc(N(CCCl)CCCl)cc4)cn3C)cn2C)cn1C [Compound 10, N-(N',N'-dimethylaminoethyl)-1-methyl-4-{1-methyl-4-[4-(4,4-bis(2-chloroethyl)aminophenyl-1-butanamido)-1-methylimidazole-2-carboxamido]imidazole-2-carboxamido}imidazole-2-carboxamide] | 10.7 µM | 11.4 µM | 38.5 µM | 5.76 µM | 45.3 µM | 44 µM | 7.05 µM | 24.1 µM | 8.63 µM | 52.7 µM | 3.19 µM | 67.5 µM | 34.8 µM | 23.9 µM | 6.13 µM | 6.77 µM | 9.74 µM | 6.13 µM | 9.3 µM | 5.27 µM | IC50 (DLD-1): 42.2 µM; IC50 (DMS-114): 7.49 µM; IC50 (EKVX): 87.8 µM; IC50 (HT29): 51 µM; IC50 (SF-268): 31.3 µM; IC50 (XF498): 5.79 µM
